# Results taken from patent US20260028328A1, “HETEROARYL DERIVATIVES AS DDRs INHIBITORS” (CHIESI FARMACEUTICI S.P.A., priority 2022, published 2026).
# Assays:
# DDR1 = DDR1 (Homo sapiens (Human), UniProt Q08345); assay: DDR1 binding assay (LanthaScreen Europium Kinase Binding assay); details: 5 nM DDR1, 20 nM Kinase Tracer 178, 1 h at rt; Ki from IC50 by Cheng-Prusoff; read-out: Ki DDR1
# Method: (§1) DDR1 and DDR2 binding assays were performed using Life Technologies LanthaScreen™ Europium Kinase Binding assay. The compounds were incubated with 5 nM DDR1 (Carna Biosciences) or 5 nM DDR2 (Life Technologies) for 1 h at rt in white 384-well OptiPlate (PerkinElmer), containing 20 nM or 10 nM Kinase Tracer 178 respectively and 2 nM Europium labelled anti-GST antibody (Life Technologies) in assay buffer (50 mM HEPES pH 7.5, 10 mM MgCI2, 1 mM EGTA and 0.01% BRIJ35). The ratio of fluorescence emission 665 nm/615 nm after excitation at 340 nm was obtained using the Tecan Spark 20M plate reader. IC50 values were determined in GraphPad Prism 7.0 software, using 4 parameter model: log(inhibitor) vs. response. IC50 values were converted in Ki using the Cheng-Prusoff equation (Ki=IC50/(1+[Tracer]/Kd).
# DDR2 = DDR2 (Homo sapiens (Human), UniProt Q16832); assay: DDR2 binding assay (LanthaScreen Europium Kinase Binding assay); details: 5 nM DDR2, 10 nM Kinase Tracer 178, 1 h at rt; Ki from IC50 by Cheng-Prusoff; read-out: Ki DDR2
# Sequence of DDR2 (Q16832 22-855): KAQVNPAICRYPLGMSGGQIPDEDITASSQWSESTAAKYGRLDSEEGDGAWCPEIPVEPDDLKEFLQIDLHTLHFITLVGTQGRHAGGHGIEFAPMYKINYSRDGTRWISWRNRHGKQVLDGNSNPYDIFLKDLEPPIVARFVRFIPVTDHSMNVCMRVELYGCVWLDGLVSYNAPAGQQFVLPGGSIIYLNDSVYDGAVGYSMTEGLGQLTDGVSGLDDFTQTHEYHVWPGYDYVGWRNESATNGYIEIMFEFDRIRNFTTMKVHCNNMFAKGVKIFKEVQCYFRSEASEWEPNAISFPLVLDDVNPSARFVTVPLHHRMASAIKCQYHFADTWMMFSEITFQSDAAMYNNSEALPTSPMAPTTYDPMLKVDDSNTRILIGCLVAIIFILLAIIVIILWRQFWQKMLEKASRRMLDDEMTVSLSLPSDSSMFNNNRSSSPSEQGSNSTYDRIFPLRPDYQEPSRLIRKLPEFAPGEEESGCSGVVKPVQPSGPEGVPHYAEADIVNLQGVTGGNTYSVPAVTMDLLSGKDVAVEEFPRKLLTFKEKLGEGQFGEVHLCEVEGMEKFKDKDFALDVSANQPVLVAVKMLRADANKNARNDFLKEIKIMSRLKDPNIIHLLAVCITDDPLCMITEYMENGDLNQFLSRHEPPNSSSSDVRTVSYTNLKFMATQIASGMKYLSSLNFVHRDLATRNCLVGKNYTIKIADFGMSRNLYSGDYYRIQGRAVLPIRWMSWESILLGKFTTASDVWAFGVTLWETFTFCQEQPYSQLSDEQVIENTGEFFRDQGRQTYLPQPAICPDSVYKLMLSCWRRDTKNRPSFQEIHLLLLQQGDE
# Method: as §1
# Sequence of DDR1 (Q08345 19-913): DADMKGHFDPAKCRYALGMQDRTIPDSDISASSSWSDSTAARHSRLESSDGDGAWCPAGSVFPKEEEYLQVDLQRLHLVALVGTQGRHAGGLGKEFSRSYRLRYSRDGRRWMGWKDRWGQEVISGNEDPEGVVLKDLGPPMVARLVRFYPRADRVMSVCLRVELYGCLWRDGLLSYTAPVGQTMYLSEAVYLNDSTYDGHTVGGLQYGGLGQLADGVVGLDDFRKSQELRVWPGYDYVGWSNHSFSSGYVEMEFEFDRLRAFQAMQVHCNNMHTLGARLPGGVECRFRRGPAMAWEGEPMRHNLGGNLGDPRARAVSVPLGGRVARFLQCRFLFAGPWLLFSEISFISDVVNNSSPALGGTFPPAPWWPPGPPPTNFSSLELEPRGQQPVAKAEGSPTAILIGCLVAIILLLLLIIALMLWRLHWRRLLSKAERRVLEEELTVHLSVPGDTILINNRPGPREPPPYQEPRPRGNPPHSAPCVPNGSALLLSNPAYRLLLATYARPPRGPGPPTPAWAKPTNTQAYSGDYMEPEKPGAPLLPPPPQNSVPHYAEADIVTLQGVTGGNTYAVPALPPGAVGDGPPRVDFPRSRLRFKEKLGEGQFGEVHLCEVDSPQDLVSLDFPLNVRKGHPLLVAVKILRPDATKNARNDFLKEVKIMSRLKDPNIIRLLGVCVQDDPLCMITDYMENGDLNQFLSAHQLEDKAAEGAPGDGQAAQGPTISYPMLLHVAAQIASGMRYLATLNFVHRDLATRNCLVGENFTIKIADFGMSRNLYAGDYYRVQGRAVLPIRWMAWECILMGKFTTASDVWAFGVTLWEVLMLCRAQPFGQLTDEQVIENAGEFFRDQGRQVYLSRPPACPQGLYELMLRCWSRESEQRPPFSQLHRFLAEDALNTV
SMILES,Ki (DDR1) [nM],Ki (DDR2) [nM]
"Cc1ccc(C(=O)Nc2cc(C(C)(C)C)nn2C)cc1OC1CN(c2cnn3ccncc23)C1 [Example 163, N-(3-(tert-butyl)-1-methyl-1H-pyrazol-5-yl)-4-methyl-3-((1-(pyrazolo[1,5-a]pyrazin-3-yl)azetidin-3-yl)oxy)benzamide]",5 to 25,5 to 25
"Cc1ccc(C(=O)Nc2cncc(C(F)(F)F)c2)cc1N(C)C1CN(c2cnn3ccncc23)C1 [Example 151, 4-methyl-3-(methyl(1-(pyrazolo[1,5-a]pyrazin-3-yl)azetidin-3-yl)amino)-N-(5-(trifluoromethyl)pyridin-3-yl)benzamide]",< 5,5 to 25
"CCc1cc(NC(=O)c2ccc(C)c(OC3CN(c4cnn5ccncc45)C3)c2)no1 [Example 152, N-(5-ethylisoxazol-3-yl)-4-methyl-3-((1-(pyrazolo[1,5-a]pyrazin-3-yl)azetidin-3-yl)oxy)benzamide]",5 to 25,25 to 100
"Cc1ccc(C(=O)Nc2cncc(C(F)(F)F)c2)cc1NC1CN(c2cncnc2)C1 [Example 134, 4-methyl-3-((1-(pyrimidin-5-yl)azetidin-3-yl)amino)-N-(5-(trifluoromethyl)pyridin-3-yl)benzamide]",5 to 25,25 to 100
"Cc1ccc(C(=O)Nc2cncc(C(F)(F)F)c2)cc1OC1CN(c2cnn3ccccc23)C1 [Example 168, 4-methyl-3-((1-(pyrazolo[1,5-a]pyridin-3-yl)azetidin-3-yl)oxy)-N-(5-(trifluoromethyl)pyridin-3-yl)benzamide]",< 5,< 5
"COc1ccc(OC(F)(F)F)cc1NC(=O)c1ccc(C)c(OC2CN(c3cnn4ccncc34)C2)c1 [Example 158, N-(2-methoxy-5-(trifluoromethoxy)phenyl)-4-methyl-3-((1-(pyrazolo[1,5-a]pyrazin-3-yl)azetidin-3-yl)oxy)benzamide]",< 5,5 to 25
"Cc1ccc(C(=O)Nc2cncc(C(F)(F)F)c2)cc1CC1CN(c2cnn3ccncc23)C1 [Example 171, 4-methyl-3-((1-(pyrazolo[1,5-a]pyrazin-3-yl)azetidin-3-yl)methyl)-N-(5-(trifluoromethyl)pyridin-3-yl)benzamide]",< 5,< 5
"COc1ccc(C(=O)Nc2cncc(C(F)(F)F)c2)cc1NC1CN(c2cnn3ccncc23)C1 [Example 183, 4-methoxy-3-((1-(pyrazolo[1,5-a]pyrazin-3-yl)azetidin-3-yl)amino)-N-(5-(trifluoromethyl)pyridin-3-yl)benzamide]",< 5,5 to 25
"Cc1ccc(OC(F)(F)F)cc1NC(=O)c1ccc(C)c(OC2CN(c3cnn4ccncc34)C2)c1 [Example 159, 4-methyl-N-(2-methyl-5-(trifluoromethoxy)phenyl)-3-((1-(pyrazolo[1,5-a]pyrazin-3-yl)azetidin-3-yl)oxy)benzamide]",< 5,5 to 25
"Cc1ccc(C(=O)Nc2cc(C(C)(C)C)n(C)n2)cc1NC1CN(c2cnn3ccncc23)C1 [Example 156, N-(5-(tert-butyl)-1-methyl-1H-pyrazol-3-yl)-4-methyl-3-((1-(pyrazolo[1,5-a]pyrazin-3-yl)azetidin-3-yl)amino)benzamide]",< 5,5 to 25
"Cc1ccc(C(=O)Nc2cncc(C(F)(F)F)c2)cc1NC1CN(c2cnn3ccncc23)C1 [Example 140, 4-methyl-3-((1-(pyrazolo[1,5-a]pyrazin-3-yl)azetidin-3-yl)amino)-N-(5-(trifluoromethyl)pyridin-3-yl)benzamide]",< 5,5 to 25
"Cc1ccc(C(=O)Nc2cc(C(F)(F)F)ccc2Cl)cc1OC1CN(c2cnn3ccncc23)C1 [Example 160, N-(2-chloro-5-(trifluoromethyl)phenyl)-4-methyl-3-((1-(pyrazolo[1,5-a]pyrazin-3-yl)azetidin-3-yl)oxy)benzamide]",< 5,5 to 25
"O=C(Nc1cncc(C(F)(F)F)c1)c1ccc(OC(F)F)c(OC2CN(c3cnn4ccncc34)C2)c1 [Example 182, 4-(difluoromethoxy)-3-((1-(pyrazolo[1,5-a]pyrazin-3-yl)azetidin-3-yl)oxy)-N-(5-(trifluoromethyl)pyridin-3-yl)benzamide]",< 5,< 5
"Cc1ccc(C(=O)Nc2cncc(C(F)(F)F)c2)cc1S(=O)(=O)C1CN(c2cnn3ccncc23)C1 [Example 179, 4-methyl-3-((1-(pyrazolo[1,5-a]pyrazin-3-yl)azetidin-3-yl)sulfonyl)-N-(5-(trifluoromethyl)pyridin-3-yl)benzamide]",5 to 25,25 to 100
"Cc1ccc(C(=O)Nc2cncc(C(F)(F)F)c2)cc1C(C)C1CN(c2cnn3ccncc23)C1 (stereo not drawn) [Example 172, 4-methyl-3-(1-(1-(pyrazolo[1,5-a]pyrazin-3-yl)azetidin-3-yl)ethyl)-N-(5-(trifluoromethyl)pyridin-3-yl)benzamide]",< 5,5 to 25
"Cc1ccc(C(=O)Nc2cc(C(C)(C)C)on2)cc1NC1CN(c2cnn3ccncc23)C1 [Example 150, N-(5-(tert-butyl)isoxazol-3-yl)-4-methyl-3-((1-(pyrazolo[1,5-a]pyrazin-3-yl)azetidin-3-yl)amino)benzamide]",5 to 25,25 to 100
"Cc1ccc(C(=O)Nc2cccc(CC(F)(F)F)c2)cc1OC1CN(c2cnn3ccncc23)C1 [Example 164, 4-methyl-3-((1-(pyrazolo[1,5-a]pyrazin-3-yl)azetidin-3-yl)oxy)-N-(3-(2,2,2-trifluoroethyl)phenyl)benzamide]",< 5,< 5

# Second part, the compound after the results:
Ki (DDR1) [nM],Ki (DDR2) [nM],SMILES
< 5,5 to 25,"Cc1ccc(C(=O)Nc2cncc(C(F)(F)F)c2)cc1OC1CN(c2cncc(C(F)F)c2)C1 [Example 165, 3-((1-(5-(difluoromethyl)pyridin-3-yl)azetidin-3-yl)oxy)-4-methyl-N-(5-(trifluoromethyl)pyridin-3-yl)benzamide]"
< 5,< 5,"Cc1ccc(C(=O)Nc2cncc(C(F)(F)F)c2)cc1OC1CN(c2cnn3ccncc23)C1 [Example 136, 4-methyl-3-((1-(pyrazolo[1,5-a]pyrazin-3-yl)azetidin-3-yl)oxy)-N-(5-(trifluoromethyl)pyridin-3-yl)benzamide]"
< 5,< 5,"Cc1ccc(C(=O)Nc2cncc(C(F)(F)F)c2)cc1OC1CN(c2cnccc2C#N)C1 [Example 174, 3-((1-(4-cyanopyridin-3-yl)azetidin-3-yl)oxy)-4-methyl-N-(5-(trifluoromethyl)pyridin-3-yl)benzamide]"
< 5,5 to 25,"Cc1ccc(C(=O)Nc2cncc(C(F)(F)F)c2)cc1OC1CN(c2ncnc3[nH]cc(C#N)c23)C1 [Example 173, 3-((1-(5-cyano-7H-pyrrolo[2,3-d]pyrimidin-4-yl)azetidin-3-yl)oxy)-4-methyl-N-(5-(trifluoromethyl)pyridin-3-yl)benzamide]"
< 5,< 5,"Cc1ccc(C(=O)Nc2cncc(C(F)(F)F)c2)cc1OC1CN(c2cnc3cnccn23)C1 [Example 146, 3-((1-(imidazo[1,2-a]pyrazin-3-yl)azetidin-3-yl)oxy)-4-methyl-N-(5-(trifluoromethyl)pyridin-3-yl)benzamide]"
< 5,< 5,"Cc1ccc(C(=O)Nc2cncc(C(F)(F)F)c2)cc1OC1CN(c2cnc3ccccn23)C1 [Example 137, 3-((1-(imidazo[1,2-a]pyridin-3-yl)azetidin-3-yl)oxy)-4-methyl-N-(5-(trifluoromethyl)pyridin-3-yl)benzamide]"
< 5,5 to 25,"Cc1ccn2ncc(N3CC(Oc4cc(C(=O)Nc5cncc(C(F)(F)F)c5)ccc4C)C3)c2n1 [Example 167, 4-methyl-3-((1-(5-methylpyrazolo[1,5-a]pyrimidin-3-yl)azetidin-3-yl)oxy)-N-(5-(trifluoromethyl)pyridin-3-yl)benzamide]"
